Data from the kinase profiling compilation of Christmann-Franck et al. (2016).

Key:
Experiment in all cases: radiometric filter-binding kinase assay
MAPK13 (human) = MAPK13 (human) (UniProt O15264); settings: ATP 100 µM
PRKACA or PRKACB (cow) = settings: accession and sequence are those of the human protein
CDK2 CCNA2 (human) = CDK2 CCNA2 (human) (UniProt P24941+P20248); settings: for residual activity: ATP 100 µM
AKT1 (human) = AKT1 (human) (UniProt P31749); settings: ATP 100 µM
PRKCA (human) = PRKCA (human) (UniProt P17252); settings: ATP 100 µM
[1] = system: RPS6KB1 (human), P23443 [T412E]; settings: ATP 100 µM
Sequence of RPS6KB1 (human), P23443 [T412E] (P23443 whole entry T412E, looked up): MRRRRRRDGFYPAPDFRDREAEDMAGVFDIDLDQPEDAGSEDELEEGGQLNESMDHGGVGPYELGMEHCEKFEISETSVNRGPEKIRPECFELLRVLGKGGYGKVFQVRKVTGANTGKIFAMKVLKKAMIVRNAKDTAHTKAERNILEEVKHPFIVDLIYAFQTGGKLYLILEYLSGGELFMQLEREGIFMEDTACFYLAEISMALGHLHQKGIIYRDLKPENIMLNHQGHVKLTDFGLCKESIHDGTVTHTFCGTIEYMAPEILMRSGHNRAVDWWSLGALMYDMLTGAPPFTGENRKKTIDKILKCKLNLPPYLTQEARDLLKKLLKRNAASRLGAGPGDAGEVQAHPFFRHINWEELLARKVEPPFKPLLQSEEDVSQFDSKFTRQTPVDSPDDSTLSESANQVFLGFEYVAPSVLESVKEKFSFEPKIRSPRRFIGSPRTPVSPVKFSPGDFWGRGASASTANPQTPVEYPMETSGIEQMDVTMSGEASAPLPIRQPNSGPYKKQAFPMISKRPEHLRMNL

MAP2K1 (rabbit) = settings: ATP 100 µM, accession and sequence are those of the human protein
[2] = molecular target: SGK1 (human), O00141 [S422D]; settings: ATP 100 µM
Sequence of SGK1 (human), O00141 [S422D] (O00141 whole entry S422D, looked up): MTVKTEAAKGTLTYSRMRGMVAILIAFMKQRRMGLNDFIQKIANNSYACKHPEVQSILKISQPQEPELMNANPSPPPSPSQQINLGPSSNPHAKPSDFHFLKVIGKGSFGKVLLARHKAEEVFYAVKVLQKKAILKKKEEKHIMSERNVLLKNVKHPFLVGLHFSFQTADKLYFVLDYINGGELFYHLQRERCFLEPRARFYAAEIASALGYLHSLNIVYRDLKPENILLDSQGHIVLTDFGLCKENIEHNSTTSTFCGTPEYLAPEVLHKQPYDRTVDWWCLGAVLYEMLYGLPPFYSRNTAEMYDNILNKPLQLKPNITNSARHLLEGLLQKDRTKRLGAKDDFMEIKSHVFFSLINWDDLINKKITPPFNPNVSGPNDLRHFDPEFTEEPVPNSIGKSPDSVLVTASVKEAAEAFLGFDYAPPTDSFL

RPS6KA1 (rat) = settings: ATP 100 µM, accession and sequence are those of the human protein
MAPK11 (human) = MAPK11 (human) (UniProt Q15759); settings: ATP 100 µM
Sequence of MAPK11 (human) (Q15759 whole entry, looked up): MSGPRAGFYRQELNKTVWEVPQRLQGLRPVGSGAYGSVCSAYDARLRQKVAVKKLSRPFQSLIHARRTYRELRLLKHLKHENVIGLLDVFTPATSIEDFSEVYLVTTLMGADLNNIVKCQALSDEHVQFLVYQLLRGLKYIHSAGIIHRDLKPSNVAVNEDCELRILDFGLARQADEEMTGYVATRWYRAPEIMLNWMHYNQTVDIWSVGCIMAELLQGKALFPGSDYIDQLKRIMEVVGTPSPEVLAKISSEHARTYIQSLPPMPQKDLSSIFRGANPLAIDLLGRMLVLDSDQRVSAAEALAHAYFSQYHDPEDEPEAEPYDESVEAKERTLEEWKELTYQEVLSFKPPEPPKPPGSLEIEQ

CHEK1 (human) = CHEK1 (human) (UniProt O14757); settings: ATP 100 µM
Sequence of CHEK1 (human) (O14757 whole entry, looked up): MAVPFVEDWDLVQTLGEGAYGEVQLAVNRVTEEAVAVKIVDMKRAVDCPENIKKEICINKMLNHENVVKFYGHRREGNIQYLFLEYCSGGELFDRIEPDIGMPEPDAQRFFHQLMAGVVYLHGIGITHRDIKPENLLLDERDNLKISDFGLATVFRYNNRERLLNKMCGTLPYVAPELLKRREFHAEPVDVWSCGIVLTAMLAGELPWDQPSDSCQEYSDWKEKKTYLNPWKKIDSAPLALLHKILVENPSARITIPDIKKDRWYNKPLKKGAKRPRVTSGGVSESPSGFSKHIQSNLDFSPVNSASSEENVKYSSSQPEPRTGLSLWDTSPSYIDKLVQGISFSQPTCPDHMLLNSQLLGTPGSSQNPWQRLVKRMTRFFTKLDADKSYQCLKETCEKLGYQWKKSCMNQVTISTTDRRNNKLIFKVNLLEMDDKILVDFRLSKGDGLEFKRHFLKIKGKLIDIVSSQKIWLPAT

MAPKAPK2 (human) = MAPKAPK2 (human) (UniProt P49137); settings: ATP 100 µM
PHKG1 or PHKG2 (rabbit) = settings: ATP 100 µM, accession and sequence are those of the human protein
DYRK1A (rat) = settings: ATP 100 µM, accession and sequence are those of the human protein
CSK (human) = CSK (human) (UniProt P41240); settings: ATP 100 µM
Sequence of CSK (human) (P41240 whole entry, looked up): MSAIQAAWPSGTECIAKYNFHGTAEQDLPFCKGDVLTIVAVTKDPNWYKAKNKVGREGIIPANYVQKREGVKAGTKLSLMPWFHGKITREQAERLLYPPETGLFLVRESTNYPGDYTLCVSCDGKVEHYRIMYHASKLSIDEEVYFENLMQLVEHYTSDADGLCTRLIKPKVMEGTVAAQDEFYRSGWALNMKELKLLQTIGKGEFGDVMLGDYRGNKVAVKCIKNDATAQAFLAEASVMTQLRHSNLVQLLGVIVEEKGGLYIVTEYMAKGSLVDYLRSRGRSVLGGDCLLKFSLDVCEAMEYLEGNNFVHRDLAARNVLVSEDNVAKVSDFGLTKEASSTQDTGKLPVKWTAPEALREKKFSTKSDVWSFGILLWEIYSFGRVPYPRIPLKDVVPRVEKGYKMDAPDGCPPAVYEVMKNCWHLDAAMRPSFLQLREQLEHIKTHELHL

MAPK14 (human) = MAPK14 (human) (UniProt Q16539); settings: ATP 100 µM
Sequence of MAPK14 (human) (Q16539 whole entry, looked up): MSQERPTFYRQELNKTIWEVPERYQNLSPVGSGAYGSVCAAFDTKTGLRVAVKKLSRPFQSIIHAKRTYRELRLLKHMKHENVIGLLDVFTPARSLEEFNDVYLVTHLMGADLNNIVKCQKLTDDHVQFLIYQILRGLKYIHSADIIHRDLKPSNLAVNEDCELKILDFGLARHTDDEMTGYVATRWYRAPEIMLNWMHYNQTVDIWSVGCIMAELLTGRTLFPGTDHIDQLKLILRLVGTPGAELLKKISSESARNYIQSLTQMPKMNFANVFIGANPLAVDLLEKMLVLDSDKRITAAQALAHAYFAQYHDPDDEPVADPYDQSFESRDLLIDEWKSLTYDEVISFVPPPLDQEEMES

[3] = molecular target: CSNK2A1 or CSNK2A2 (human) (UniProt P19784+P68400); settings: ATP 100 µM
MAPK8 (human) = MAPK8 (human) (UniProt P45983); settings: ATP 100 µM
MAPKAPK5 (human) = MAPKAPK5 (human) (UniProt Q8IW41); settings: ATP 100 µM
Sequence of MAPKAPK5 (human) (Q8IW41 whole entry, looked up): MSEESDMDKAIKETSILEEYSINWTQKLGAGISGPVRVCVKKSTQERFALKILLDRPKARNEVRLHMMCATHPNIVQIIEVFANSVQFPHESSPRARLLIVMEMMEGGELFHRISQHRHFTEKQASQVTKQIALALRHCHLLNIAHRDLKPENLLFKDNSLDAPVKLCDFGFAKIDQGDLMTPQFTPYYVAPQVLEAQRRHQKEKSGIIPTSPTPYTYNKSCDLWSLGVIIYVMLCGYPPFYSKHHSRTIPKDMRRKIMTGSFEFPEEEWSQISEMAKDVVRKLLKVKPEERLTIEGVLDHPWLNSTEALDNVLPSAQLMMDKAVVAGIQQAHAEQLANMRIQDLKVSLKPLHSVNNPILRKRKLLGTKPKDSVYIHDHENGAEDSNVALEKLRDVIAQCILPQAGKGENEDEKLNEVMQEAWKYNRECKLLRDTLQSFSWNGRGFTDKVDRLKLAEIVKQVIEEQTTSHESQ

GSK3B (human) = GSK3B (human) (UniProt P49841); settings: ATP 100 µM
RPS6KA5 KD1 KD2 (human) = RPS6KA5 KD1 KD2 (human) (UniProt O75582); settings: ATP 100 µM
ROCK2 (rat) = settings: ATP 100 µM, accession and sequence are those of the human protein
MAPK1 (mouse) = settings: ATP 100 µM, accession and sequence are those of the human protein
LCK (human) = LCK (human) (UniProt P06239); settings: ATP 100 µM
Sequence of LCK (human) (P06239 whole entry, looked up): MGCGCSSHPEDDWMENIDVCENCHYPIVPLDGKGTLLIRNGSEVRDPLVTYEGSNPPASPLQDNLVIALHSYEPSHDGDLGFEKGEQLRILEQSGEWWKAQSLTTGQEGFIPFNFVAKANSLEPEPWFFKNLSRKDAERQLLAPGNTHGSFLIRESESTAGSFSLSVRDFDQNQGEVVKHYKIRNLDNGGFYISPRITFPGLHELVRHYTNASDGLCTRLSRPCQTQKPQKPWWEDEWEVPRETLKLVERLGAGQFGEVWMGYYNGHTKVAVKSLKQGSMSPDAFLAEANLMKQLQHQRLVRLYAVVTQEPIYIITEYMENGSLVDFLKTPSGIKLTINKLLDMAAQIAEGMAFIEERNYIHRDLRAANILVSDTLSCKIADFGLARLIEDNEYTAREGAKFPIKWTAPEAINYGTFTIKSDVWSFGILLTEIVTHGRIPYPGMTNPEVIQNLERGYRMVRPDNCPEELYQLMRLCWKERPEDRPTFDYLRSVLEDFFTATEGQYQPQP

CSNK1A1 (rat) = settings: ATP 100 µM, accession and sequence are those of the human protein
PDPK1 (human) = PDPK1 (human) (UniProt O15530); settings: ATP 100 µM
MAPK12 (human) = MAPK12 (human) (UniProt P53778); settings: ATP 100 µM
Sequence of MAPK12 (human) (P53778 whole entry, looked up): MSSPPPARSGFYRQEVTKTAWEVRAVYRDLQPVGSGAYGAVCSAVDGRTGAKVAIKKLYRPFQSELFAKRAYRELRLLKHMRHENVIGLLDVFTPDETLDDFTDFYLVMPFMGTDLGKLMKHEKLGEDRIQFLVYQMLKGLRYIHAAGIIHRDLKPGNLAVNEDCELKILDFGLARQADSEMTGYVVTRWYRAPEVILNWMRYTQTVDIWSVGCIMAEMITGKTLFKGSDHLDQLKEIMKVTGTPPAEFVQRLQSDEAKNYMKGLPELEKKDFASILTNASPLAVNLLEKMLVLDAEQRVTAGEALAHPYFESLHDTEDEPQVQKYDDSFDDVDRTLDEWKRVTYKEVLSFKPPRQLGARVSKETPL

PRKAA1 or PRKAA2 (rat) = settings: ATP 100 µM, accession and sequence are those of the human protein
RPS6KA1 (human) = RPS6KA1 (human) (UniProt Q15418); settings: ATP 100 µM
MYLK2 (human) = MYLK2 (human) (UniProt Q9H1R3); settings: compound 100.0 µM; ATP 100 µM
MYLK (human) = MYLK (human) (UniProt Q15746); settings: compound 100.0 µM; ATP 100 µM

Sequence of MAPK13 (human) (O15264 whole entry, looked up): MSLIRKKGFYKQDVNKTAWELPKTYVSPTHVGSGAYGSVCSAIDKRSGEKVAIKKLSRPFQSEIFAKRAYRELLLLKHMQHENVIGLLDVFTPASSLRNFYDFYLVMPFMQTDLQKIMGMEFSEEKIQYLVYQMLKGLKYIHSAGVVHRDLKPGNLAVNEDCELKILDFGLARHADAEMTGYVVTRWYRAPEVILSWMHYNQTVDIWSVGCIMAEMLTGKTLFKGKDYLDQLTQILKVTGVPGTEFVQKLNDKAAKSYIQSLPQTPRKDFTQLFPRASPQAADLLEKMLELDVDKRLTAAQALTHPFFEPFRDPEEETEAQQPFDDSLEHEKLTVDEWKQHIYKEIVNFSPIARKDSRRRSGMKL
Sequence of AKT1 (human) (P31749 whole entry, looked up): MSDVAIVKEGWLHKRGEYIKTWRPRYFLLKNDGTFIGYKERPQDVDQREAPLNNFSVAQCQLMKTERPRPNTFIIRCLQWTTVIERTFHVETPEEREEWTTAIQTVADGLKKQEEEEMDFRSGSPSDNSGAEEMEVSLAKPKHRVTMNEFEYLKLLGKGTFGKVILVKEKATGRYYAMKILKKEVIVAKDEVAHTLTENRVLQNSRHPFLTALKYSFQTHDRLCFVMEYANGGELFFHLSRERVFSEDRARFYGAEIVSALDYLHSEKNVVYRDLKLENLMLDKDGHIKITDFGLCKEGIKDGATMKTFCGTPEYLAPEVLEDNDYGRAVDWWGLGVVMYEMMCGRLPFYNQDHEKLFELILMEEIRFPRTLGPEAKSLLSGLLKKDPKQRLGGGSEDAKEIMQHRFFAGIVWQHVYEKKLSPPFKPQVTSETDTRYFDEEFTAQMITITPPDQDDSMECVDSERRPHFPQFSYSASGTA

## O=C1Nc2ccccc2/C1=C1\Nc2ccccc2\C1=N/O
MAPK13 (human); compound 10.0 µM
  residual activity: 65%
PRKACA or PRKACB (cow); compound 10.0 µM
  residual activity: 80%
CDK2 CCNA2 (human)
  IC50: 0.59 µM
CDK2 CCNA2 (human); compound 10.0 µM
  residual activity: 18%
AKT1 (human); compound 10.0 µM
  residual activity: 62%
PRKCA (human); compound 10.0 µM
  residual activity: 68%
[1]; compound 10.0 µM
  residual activity: 20%
MAP2K1 (rabbit); compound 10.0 µM
  residual activity: 94%
[2]
  IC50: 0.38 µM
[2]; compound 10.0 µM
  residual activity: 9%
RPS6KA1 (rat); compound 10.0 µM
  residual activity: 20%
MAPK11 (human); compound 10.0 µM
  residual activity: 45%
CHEK1 (human); compound 10.0 µM
  residual activity: 38%
MAPKAPK2 (human); compound 10.0 µM
  residual activity: 69%
PHKG1 or PHKG2 (rabbit); compound 10.0 µM
  residual activity: 102%
DYRK1A (rat); compound 10.0 µM
  residual activity: 62%
CSK (human); compound 10.0 µM
  residual activity: 105%
MAPK14 (human); compound 10.0 µM
  residual activity: 83%
[3]; compound 10.0 µM
  residual activity: 82%
MAPK8 (human); compound 10.0 µM
  residual activity: 21%
MAPKAPK5 (human); compound 10.0 µM
  residual activity: 38%
GSK3B (human); compound 10.0 µM
  residual activity: 6%
RPS6KA5 KD1 KD2 (human); compound 10.0 µM
  residual activity: 40%
ROCK2 (rat); compound 10.0 µM
  residual activity: 15%
MAPK1 (mouse); compound 10.0 µM
  residual activity: 104%
LCK (human)
  IC50: 0.3 µM
LCK (human); compound 10.0 µM
  residual activity: 11%
CSNK1A1 (rat); compound 10.0 µM
  residual activity: 38%
PDPK1 (human); compound 10.0 µM
  residual activity: 27%
MAPK12 (human); compound 10.0 µM
  residual activity: 74%
PRKAA1 or PRKAA2 (rat)
  IC50: 0.22 µM
PRKAA1 or PRKAA2 (rat); compound 10.0 µM
  residual activity: 6%

## CC(C)[C@H](CO)Nc1nc(Nc2cccc(Cl)c2)c2ncn(C(C)C)c2n1
MAPK13 (human); compound 10.0 µM
  residual activity: 98%
PRKACA or PRKACB (cow); compound 10.0 µM
  residual activity: 82%
CDK2 CCNA2 (human); compound 10.0 µM
  residual activity: 2%
AKT1 (human); compound 10.0 µM
  residual activity: 88%
[1]; compound 10.0 µM
  residual activity: 79%
MAP2K1 (rabbit); compound 10.0 µM
  residual activity: 80%
[2]; compound 10.0 µM
  residual activity: 91%
RPS6KA1 (rat); compound 10.0 µM
  residual activity: 15%
MAPK11 (human); compound 10.0 µM
  residual activity: 117%
CHEK1 (human); compound 10.0 µM
  residual activity: 78%
MAPKAPK2 (human); compound 10.0 µM
  residual activity: 97%
PHKG1 or PHKG2 (rabbit); compound 10.0 µM
  residual activity: 36%
DYRK1A (rat)
  IC50: 0.3 µM
DYRK1A (rat); compound 10.0 µM
  residual activity: 6%
CSK (human); compound 10.0 µM
  residual activity: 20%
MAPK14 (human); compound 10.0 µM
  residual activity: 101%
RPS6KA1 (human)
  IC50: 1.49 µM
[3]; compound 10.0 µM
  residual activity: 95%
MAPK8 (human); compound 10.0 µM
  residual activity: 84%
MAPKAPK5 (human); compound 10.0 µM
  residual activity: 76%
GSK3B (human); compound 10.0 µM
  residual activity: 84%
RPS6KA5 KD1 KD2 (human); compound 10.0 µM
  residual activity: 88%
ROCK2 (rat); compound 10.0 µM
  residual activity: 57%
MAPK1 (mouse); compound 10.0 µM
  residual activity: 26%
LCK (human); compound 10.0 µM
  residual activity: 22%
CSNK1A1 (rat); compound 10.0 µM
  residual activity: 75%
PDPK1 (human); compound 10.0 µM
  residual activity: 103%
MAPK12 (human); compound 10.0 µM
  residual activity: 105%
PRKAA1 or PRKAA2 (rat); compound 10.0 µM
  residual activity: 59%

## O=S(=O)(c1cccc2c(Cl)cccc12)N1CCCNCC1
MYLK2 (human)
  residual activity: 54%
MAPK13 (human); compound 100.0 µM
  residual activity: 86%
PRKACA or PRKACB (cow); compound 100.0 µM
  residual activity: 71%
CDK2 CCNA2 (human); compound 100.0 µM
  residual activity: 75%
AKT1 (human); compound 100.0 µM
  residual activity: 76%
PRKCA (human); compound 100.0 µM
  residual activity: 80%
MYLK (human)
  residual activity: 25%
[1]; compound 100.0 µM
  residual activity: 27%
MAP2K1 (rabbit); compound 100.0 µM
  residual activity: 95%
[2]; compound 100.0 µM
  residual activity: 84%
RPS6KA1 (rat); compound 100.0 µM
  residual activity: 44%
MAPK11 (human); compound 100.0 µM
  residual activity: 98%
CHEK1 (human); compound 100.0 µM
  residual activity: 103%
MAPKAPK2 (human); compound 100.0 µM
  residual activity: 106%
PHKG1 or PHKG2 (rabbit); compound 100.0 µM
  residual activity: 79%
DYRK1A (rat); compound 100.0 µM
  residual activity: 38%
CSK (human); compound 100.0 µM
  residual activity: 96%
MAPK14 (human); compound 100.0 µM
  residual activity: 94%
[3]; compound 100.0 µM
  residual activity: 69%
MAPK8 (human); compound 100.0 µM
  residual activity: 102%
MAPKAPK5 (human); compound 100.0 µM
  residual activity: 91%
GSK3B (human); compound 100.0 µM
  residual activity: 107%
RPS6KA5 KD1 KD2 (human); compound 100.0 µM
  residual activity: 14%
ROCK2 (rat); compound 100.0 µM
  residual activity: 23%
MAPK1 (mouse); compound 100.0 µM
  residual activity: 101%
LCK (human); compound 100.0 µM
  residual activity: 116%
CSNK1A1 (rat); compound 100.0 µM
  residual activity: 103%
PDPK1 (human); compound 100.0 µM
  residual activity: 113%
MAPK12 (human); compound 100.0 µM
  residual activity: 98%
PRKAA1 or PRKAA2 (rat); compound 100.0 µM
  residual activity: 61%
